In one experiment the test system is E. coli AG100A. The experiment in a line: Broth microdilution MIC in CAMHB. Type of experiment: cell-based. The note with it: Escherichia coli, read-out: Minimum Inhibitory Concentration, E. coli AG100A. In a few lines:
(§1)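 Colonies from cation-adjusted Mueller Hinton agar are grown in broth (3-5 h, 37° C), adjusted by OD600, and added at 2-8×10^5 CFU/mL to 2-fold compound dilutions. After 16-20 h at 37° C, the lowest concentration without growth is taken as MIC.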

For a further experiment, the system named is P. aeruginosa ATCC 27853. The experiment in a line: Broth microdilution MIC in CAMHB. The note with it: Pseudomonas aeruginosa, ATCC27853; MHB; read-out: Minimum Inhibitory Concentration, P. aeruginosa ATCC 27853. The format is cell-based. The method, boiled down:
as §1

Experiment [1] relates to P. aeruginosa (ΔmexAB-oprM). The experiment in a line: Broth microdilution MIC in CAMHB. Type of experiment: cell-based. As to conditions: Pseudomonas aeruginosa, read-out: Minimum Inhibitory Concentration, P. aeruginosa ΔmexAB-OprM. The method, boiled down: as §1
Another experiment relates to P. aeruginosa ATCC 35151. The experiment in a line: Broth microdilution MIC in CAMHB. Type of experiment: cell-based. The note with it: Pseudomonas aeruginosa, ATCC35151; MHB; hyper-permeable strain; read-out: Minimum Inhibitory Concentration, P. aeruginosa ATCC 35151. In a few lines:
as §1

Another experiment has as its system A. baumannii ATCC 19606. The experiment in a line: Broth microdilution MIC in CAMHB. Type of experiment: cell-based. The note with it: Acinetobacter baumannii, ATCC19606; MHB; read-out: Minimum Inhibitory Concentration, A. baumannii ATCC 19606. The method, boiled down:
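CLSI microdilution; CAMHB; inoculum 2-8×10^5 CFU/mL from 3-5 h 37° C culture; 2-fold compound series; 16-20 h, 37° C; MIC = lowest well without visible growth.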

The subject of experiment [2] is K. pneumoniae UMM producing SHV-5 and KPC-2. The experiment in a line: Broth microdilution MIC in CAMHB. Type of experiment: cell-based. The note with it: Klebsiella pneumoniae, read-out: Minimum Inhibitory Concentration, K. pneumoniae UMM. The method, boiled down: as §1
Another experiment has as its system E. coli 901C. The experiment in a line: Broth microdilution MIC in CAMHB. Type of experiment: cell-based. The note with it: Escherichia coli; E. coli 901C (hyper-permeable); MHB; read-out: Minimum Inhibitory Concentration, E. coli 901C. The method, boiled down:
as §1

The next experiment deals with E. coli D22. The experiment in a line: Broth microdilution MIC in CAMHB. As to conditions: Escherichia coli; E. coli D22 (hyper-permeable); MHB; read-out: Minimum Inhibitory Concentration, E. coli D22. The format is cell-based. In a few lines: as §1
For experiment [3], the system named is K. pneumoniae 848844 producing SHV-11 and KPC-2. The experiment in a line: Broth microdilution MIC in CAMHB. The format is cell-based. The note with it: Klebsiella pneumoniae, read-out: Minimum Inhibitory Concentration, K. pneumoniae 848844. The method, boiled down:
as §1

For experiment [4], the system named is K. pneumoniae SI-117 producing VIM-1. The experiment in a line: Broth microdilution MIC in CAMHB. Type of experiment: cell-based. As to conditions: Klebsiella pneumoniae, read-out: Minimum Inhibitory Concentration, K. pneumoniae SI-117. The method, boiled down: as §1
The test system of the next experiment is E. coli ATCC 25922. The experiment in a line: Broth microdilution MIC in CAMHB. Type of experiment: cell-based. The note with it: Escherichia coli, ATCC25922; E. coli ATCC 25922; MHB; read-out: Minimum Inhibitory Concentration, E. coli 25922. In a few lines:
as §1

A further experiment concerns E. coli AG100. The experiment in a line: Broth microdilution MIC in CAMHB. The format is cell-based. The note with it: Escherichia coli; E. coli AG100 (wild-type parent); MHB; read-out: Minimum Inhibitory Concentration, E. coli AG100. In a few lines:
as §1

For a further experiment, the target named is T1, E. coli K12 PBP3 (Escherichia coli, UniProt P0AD68).
T1 construct: made in house
T1 sequence (P0AD68 1-577): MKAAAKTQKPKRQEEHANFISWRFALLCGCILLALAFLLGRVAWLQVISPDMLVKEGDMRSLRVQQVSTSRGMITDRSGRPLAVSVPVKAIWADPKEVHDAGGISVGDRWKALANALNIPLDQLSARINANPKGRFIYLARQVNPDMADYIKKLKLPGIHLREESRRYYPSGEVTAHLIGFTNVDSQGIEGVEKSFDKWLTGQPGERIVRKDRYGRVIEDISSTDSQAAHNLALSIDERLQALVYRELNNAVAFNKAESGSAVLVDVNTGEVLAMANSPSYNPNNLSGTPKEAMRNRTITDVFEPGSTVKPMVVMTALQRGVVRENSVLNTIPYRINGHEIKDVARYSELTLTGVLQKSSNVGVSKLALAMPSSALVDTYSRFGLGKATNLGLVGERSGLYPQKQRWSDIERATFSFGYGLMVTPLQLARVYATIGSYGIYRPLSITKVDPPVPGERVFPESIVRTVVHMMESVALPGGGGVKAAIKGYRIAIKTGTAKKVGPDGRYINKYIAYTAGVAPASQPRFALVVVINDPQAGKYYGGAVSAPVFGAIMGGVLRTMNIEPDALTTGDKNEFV
The experiment in a line: biochemical. Type of experiment: binding. In a few lines:
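Fluorescence polarization (ex 490/em 520 nm) competition of inhibitors against Bocillin-FL at 0.1 μM, read up to 60 min. Final PBP levels: E. coli PBP3 1.5 μM; A. baumannii PBP2 2.5 μM, PBP3 0.2 μM in Tris pH 8.0/NaCl/glycerol/Tween 20; N. gonorrhoeae PBP2 […] in Hepes pH 8.0/NaCl/glycerol. EC50 = concentration halving PBP-bound Bocillin-FL.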

For another experiment, the target named is T2, P. aeruginosa PBP3 (Pseudomonas aeruginosa, UniProt G3XD46).
T2 construct: made in house
T2 sequence (G3XD46 whole entry): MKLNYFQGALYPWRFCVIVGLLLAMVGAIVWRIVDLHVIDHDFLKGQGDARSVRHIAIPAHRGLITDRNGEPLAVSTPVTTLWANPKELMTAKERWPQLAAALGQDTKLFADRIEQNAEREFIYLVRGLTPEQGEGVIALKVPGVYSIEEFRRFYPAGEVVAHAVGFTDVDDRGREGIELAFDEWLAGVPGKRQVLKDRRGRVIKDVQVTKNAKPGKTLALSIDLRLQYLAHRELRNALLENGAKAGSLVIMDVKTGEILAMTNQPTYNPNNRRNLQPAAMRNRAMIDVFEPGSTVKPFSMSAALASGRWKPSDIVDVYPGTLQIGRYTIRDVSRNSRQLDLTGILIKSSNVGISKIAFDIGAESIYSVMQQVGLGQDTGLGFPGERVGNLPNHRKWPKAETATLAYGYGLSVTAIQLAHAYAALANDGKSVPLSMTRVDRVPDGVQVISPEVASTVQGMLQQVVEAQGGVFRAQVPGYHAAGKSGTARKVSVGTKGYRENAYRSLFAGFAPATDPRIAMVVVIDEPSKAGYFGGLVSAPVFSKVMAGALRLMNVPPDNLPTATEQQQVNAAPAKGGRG
The experiment in a line: Bocillin-FL fluorescence polarization competition binding assay, P. aeruginosa PBP3. As to conditions: fluorescence polarization competition binding assay using Bocillin-FL. In a few lines: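 Binding of boronic acid inhibitors to purified Pseudomonas aeruginosa (PA01) PBP3 was measured by fluorescence polarization competition with Bocillin-FL, a fluorescent penicillin V. Reactions of 80 μl contained 0.75 μM PBP3 and 0.1 μM Bocillin-FL in 50 mM Hepes (pH 8.0), 300 mM NaCl and 5% (v/v) glycerol, in black 384-well plates. FP (Excitation 490 nm, Emission 520 nm) was read for up to 60 minutes. EC50 is the concentration that halves PBP-bound Bocillin-FL.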

Experiment [5] in a line: Bocillin-FL fluorescence polarization competition binding assay, A. baumannii PBP3. As to conditions: fluorescence polarization competition binding assay using Bocillin-FL; column 3; read-out: 4. baumannii PBP1a Potency. From the text: Example I: Experimental Method for Penicillin-Binding Protein Binding Assays with Bocillin-FL Via Fluorescence Polarization
To determine the ability of boronic acid-based test PBP inhibitors to bind Penicillin Binding Proteins (PBPs), Bocillin-FL (fluorescently-labeled penicillin V; ThermoFisher Scientific) was used in a fluorescence polarization (FP) competition binding assay to assess inhibitor binding to PBP2, PBP3 or PBP4 from Escherichia coli (K12), PBP3 from Pseudomonas aeruginosa (PA01), PBP1a, PBP2 and PBP3 from Acinetobacter baumannii (ATCC 19606), and PBP2 from Neiserria gonorrheae (FA19). PBPs were cloned and purified as described previously (E. coli PBPs, King, D. T, et al., ACS Infectious Diseases 2015, 1, 175-184; P. aeruginosa PBP3, Han et. al., PNAS 2010, 107 (51), 22002-22007; A. baumannii PBPs, Penwell et. al., Antimicrob. Agents Chemother. 2015, 59 (3), 1680-1689; N. gonorrhoeae PBP2, Singh et. al., J Biol. Chem. 2019, 294 (38), 14020-14032). To establish assay conditions for competition binding, enzyme titration/saturation binding experiments were initially performed. Bocillin-FL was prepared at 0.2 μM in a buffer comprised of 50 mM Hepes (pH 8.0), 300 mM NaCl and 5% (v/v) glycerol for reactions with E. coli, P. aeruginosa and N. gonorrhoeae PBPs, and 25 mM Tris (pH 8.0), 200 mM NaCl and 10% (v/v) glycerol and 0.005% (v/v) Tween 20 for reactions with A. baumannii PBPs. Saturation binding was performed by mixing 40 μl of PBP solutions ranging in concentrations from 0-24 μM with 40 μl of the 0.2 μM Bocillin-FL solution, in individual wells of a black 384-well microplate. FP was measured immediately upon mixing (Excitation, 490 nm; Emission, 520 nm; g-factor, 0.96), using a Cytation3 (BioTek) microplate reader and measured continuously for up to 120 minutes. […] The competition binding assay (80 μl final volume) was validated using beta-lactams and PBPs at final concentrations of: 1.5 μM, E. coli PBP3; 0.75 μM, P. aeruginosa PBP3; 1 μM A. baumannii PBP1a; 2.5 μM A. baumannii PBP2; 0.2 μM A. baumannii PBP3; and […] N. gonorrhoeae PBP2. Bocillin-FL was at 0.1 μM (0.05 μM with A. baumannii PBP1a) and beta-lactam concentrations ranged from 0-1000 μM. […] Bocillin-FL was added and the FP immediately measured for up to 60 minutes (90 minutes for E. coli PBP2). […] The beta-lactam potency was reported as the concentration of beta-lactam required to reduce the amount of PBP bound-Bocillin-FL by 50% (EC50). […] Binding assays for boronic acid PBP inhibitors were performed in an identical fashion for the respective PBPs

≈ marks a conversion by molar mass, not a printed value. Where only a bound is given, the exact number is not on record here.

Turning to `C[C@H]1CN(CCN)C(=O)C(=O)N1C(=O)N[C@@H](C(=O)N[C@H]1Cc2cccc(C(=O)O)c2OB1O)c1ncc(O)cc1F` [Example 14, (R)-3-((R)-2-((S)-4-(2-aminoethyl)-6-methyl-2,3-dioxopiperazine-1-carboxamido)-2-(3-fluoro-5-hydroxypyridin-2-yl)acetamido)-2-hydroxy-3,4-dihydro-2H-benzo[e][1,2]oxaborinine-8-carboxylic acid], the MIC was 0.5 to 1 µg/mL (≈ 0.874 to 1.75 µM) with E. coli AG100A; over 128 µg/mL in the experiment on P. aeruginosa ATCC 27853; 8 to 16 µg/mL (≈ 14 to 28 µM) in [1]; 0.5 to 1 µg/mL (≈ 0.874 to 1.75 µM) with P. aeruginosa ATCC 35151; over 128 µg/mL in the experiment on A. baumannii ATCC 19606; 8 to 16 µg/mL (≈ 14 to 28 µM) in experiment [2]. Further, the MIC in the experiment on E. coli 901C fell in the range of 0.5 to 1 µg/mL (≈ 0.874 to 1.75 µM); in the experiment with E. coli D22, 2 to 4 µg/mL (≈ 3.49 to 6.99 µM); in experiment [3], 32 to 64 µg/mL (≈ 55.9 to 112 µM); in experiment [4], 32 to 64 µg/mL (≈ 55.9 to 112 µM); in the experiment with E. coli ATCC 25922, 8 to 16 µg/mL (≈ 14 to 28 µM); in the experiment with E. coli AG100, 8 to 16 µg/mL (≈ 14 to 28 µM). The EC50 was under 30 µM on E. coli K12 PBP3 and under 10 µM in experiment [5]. At P. aeruginosa PBP3, the “P. aeruginosa PBP3 Potency” value was “D (D represents a potency <10 μM)”.

On to `NCCCN1CCN(C(=O)N[C@@H](C(=O)N[C@H]2Cc3ccc(F)c(C(=O)O)c3OB2O)c2ncc(O)cc2F)C(=O)C1=O` [Example 16, (R)-3-((R)-2-(4-(3-aminopropyl)-2,3-dioxopiperazine-1-carboxamido)-2-(3-fluoro-5-hydroxypyridin-2-yl)acetamido)-7-fluoro-2-hydroxy-3,4-dihydro-2H-benzo[e][1,2]oxaborinine-8-carboxylic acid], for which the MIC was 8 to 16 µg/mL (≈ 13.6 to 27.1 µM) in the experiment on E. coli AG100A; 32 to 64 µg/mL (≈ 54.2 to 108 µM) in the experiment with P. aeruginosa ATCC 27853; 8 to 16 µg/mL (≈ 13.6 to 27.1 µM) in [1]; under 0.25 µg/mL in the experiment with P. aeruginosa ATCC 35151; over 128 µg/mL in the experiment on A. baumannii ATCC 19606; 32 to 64 µg/mL (≈ 54.2 to 108 µM) in experiment [2]. For the same molecule, the MIC lay in the range of 2 to 4 µg/mL (≈ 3.39 to 6.78 µM) in the experiment on E. coli 901C; 2 to 4 µg/mL (≈ 3.39 to 6.78 µM) in the experiment on E. coli D22; 32 to 64 µg/mL (≈ 54.2 to 108 µM) in experiment [3]; 32 to 64 µg/mL (≈ 54.2 to 108 µM) in experiment [4]; 8 to 16 µg/mL (≈ 13.6 to 27.1 µM) in the experiment with E. coli ATCC 25922; 8 to 16 µg/mL (≈ 13.6 to 27.1 µM) with E. coli AG100. In addition, the values for the EC50 (at E. coli K12 PBP3; in experiment [5]) were under 30 µM and 30 to 100 µM, respectively. Also, the “P. aeruginosa PBP3 Potency” value on P. aeruginosa PBP3 is listed as “D (D represents a potency <10 μM)”.

Values taken from patent US20230114728A1 (Venatorx Pharmaceuticals, Inc., priority 2019, published 2023).
